Laboratory results as given in ChEMBL document CHEMBL5257035, “Nucleoside Derived Antibiotics to Fight Microbial Drug Resistance: New Utilities for an Established Class of Drugs?” (J Med Chem, 2016).
In brackets after ≈: the same amount, converted by molar mass. Values belong to the molecule of their own block, whether it stands above or below them.

How the values were obtained:
[1] = system: Candida albicans; assay: Antifungal activity against Candida albicans assessed as fungal growth inhibition measured after 24 hrs by micro broth dilution method; assay type: functional
[2] = system: Aspergillus fumigatus; assay: Antifungal activity against Aspergillus fumigatus assessed as fungal growth inhibition; assay type: functional
[3] = system: Cryptococcus neoformans; assay: Antifungal activity against Cryptococcus neoformans assessed as fungal growth inhibition measured after 24 hrs by micro broth dilution method; assay type: functional
[4] = system: Streptococcus pyogenes; assay: Antimicrobial activity against Streptococcus pyogenes ATCC 12344 assessed as reduction in microbial growth by broth microdilution method; assay type: functional
[5] = system: Staphylococcus aureus; assay: Antimicrobial activity against methicillin-resistant Staphylococcus aureus 10925 assessed as reduction in microbial growth by broth microdilution method; assay type: functional
[6] = system: Pseudomonas aeruginosa; assay: Antimicrobial activity against Pseudomonas aeruginosa M35 assessed as reduction in microbial growth; assay type: functional
[7] = system: Pseudomonas aeruginosa; assay: Antibacterial activity against Pseudomonas aeruginosa ATCC 27853 assessed as bacterial growth inhibition at 32 ug/ml measured after 16 hrs by broth microdilution method; assay type: functional; conditions: dose 32 µg/ml
[8] = system: Candida albicans; assay: Antifungal activity against Candida albicans assessed as inhibition of fungal growth; assay type: functional
[9] = system: Aspergillus fumigatus; assay: Antifungal activity against Aspergillus fumigatus assessed as inhibition of fungal growth; assay type: functional
[10] = system: Staphylococcus aureus; assay: Antimicrobial activity against methicillin-resistant Staphylococcus aureus assessed as reduction in microbial growth by broth microdilution method; assay type: functional
[11] = system: Enterococcus faecalis; assay: Antimicrobial activity against Enterococcus faecalis 10785 assessed as reduction in microbial growth by broth microdilution method; assay type: functional
[12] = Inhibition of Bacterial MraY; parameters: species or system Bacteria
[13] = system: Candida albicans; assay: Antifungal activity against Candida albicans B-311 assessed as reduction fungal growth incubated for 16 hrs by microbroth dilution method; assay type: functional
[14] = biological target: Phospho-N-acetylmuramoyl-pentapeptide-transferase (Staphylococcus aureus, UniProt P0C1R8); assay: Inhibition of Staphylococcus aureus MraY
[15] = system: Staphylococcus aureus; assay: Antibacterial activity against methicillin-resistant Staphylococcus aureus assessed as reduction in bacterial growth by broth dilution method; assay type: functional
[16] = system: Cryptococcus neoformans; assay: Antifungal activity against Cryptococcus neoformans assessed as fungal growth inhibition; assay type: functional
[17] = system: Fusarium oxysporum; assay: Antifungal activity against Fusarium oxysporum assessed as inhibition of fungal growth; assay type: functional
[18] = system: Candida albicans; assay: […] activity against Candida albicans assessed as […] measured after 24 hrs by microtitre dilution method; assay type: functional

MIC [1]: 0.19 µM (≈ 0.0675 µg/mL)
MIC [2]: 0.19 µM (≈ 0.0675 µg/mL)
MIC [3]: 0.19 µM (≈ 0.0675 µg/mL)
SMILES: Nc1ncnc2c1ncn2[C@@H]1O[C@H](CSCCC(=O)O)[C@@H](O)[C@H]1O

MIC [4]: 0.003 µg/mL
SMILES: O=c1[nH]c(=O)n([C@H]2C[C@H](O)[C@@H](CO)O2)cc1F [FLOXURIDINE]

SMILES: Nc1ccn([C@@H]2O[C@H](CO)[C@@H](O)C2(F)F)c(=O)n1 [GEMCITABINE]
MIC [5]: 0.002 µg/mL

MIC [6]: 6.25 µg/mL
SMILES: CSCC[C@H](NC(=O)N[C@@H](Cc1cccc(O)c1)C(=O)O)C(=O)NC(CN(C)C(=O)C1Cc2ccc(O)cc2CN1)C(=O)N/C=C1/C[C@@H](O)[C@H](n2ccc(=O)[nH]c2=O)O1 (some centres undefined)

MIC [7]: 4 µg/mL (≈ 3.56 µM)
SMILES: CCCCCCCCCCCCCCCCC(=O)NC(CCCCCCCCCCCCCCC)C(=O)[C@H](NCCCC(=O)NCCCCNC(=N)N)[C@H](O[C@@H]1O[C@H](CN)[C@@H](O)[C@H]1O)[C@H]1O[C@@H](n2ccc(=O)[nH]c2=O)[C@H](O)[C@@H]1O (some centres undefined)

MIC [1]: 0.19 µM (≈ 0.0725 µg/mL)
MIC [2]: 0.19 µM (≈ 0.0725 µg/mL)
MIC [3]: 0.19 µM (≈ 0.0725 µg/mL)
SMILES: CCOC(=O)CCSC[C@H]1O[C@@H](n2cnc3c(N)cccc32)[C@H](O)[C@@H]1O

MIC [8]: 1000 µg/mL (≈ 2630 µM)
MIC [9]: 1000 µg/mL (≈ 2630 µM)
SMILES: O=C(OC[C@H]1O[C@@H](n2ccc(=O)[nH]c2=O)[C@H](O)[C@@H]1O)c1cc(O)ccc1O

SMILES: COc1ccc(Cn2c(=O)ccn([C@@H]3O[C@H]([C@H](O)[C@H](NCCCNC(=O)[C@@H](N)[C@@H](O)C(C)C)C(=O)OC(C)(C)C)[C@@H](O[Si](C)(C)C(C)(C)C)[C@H]3O[Si](C)(C)C(C)(C)C)c2=O)cc1
MIC [10]: 4 µg/mL
MIC [11]: 4 µg/mL

SMILES: CCC(C)CCCCCCC/C(C)=C/C(C)=C/C(=O)NCC(=O)N[C@H]1[C@H](OP(=O)(O)OC(C(=O)O)C(C[C@H]2O[C@@H](n3ccc(=O)[nH]c3=O)[C@H](O)[C@@H]2O)O[C@@H]2O[C@H](CO)[C@@H](O)[C@H](O)[C@H]2O)O[C@H](CO)[C@@H](O)[C@@H]1O (some centres undefined)
IC50 [12]: 1100 nM
MIC [10]: 100 µg/mL
MIC [11]: 50 µg/mL

MIC [13]: 83 µg/mL (≈ 136 µM)
SMILES: CC(C)C[C@H](N)C(=O)N[C@H](C(=O)N[C@@H](C(=O)O)[C@H]1OC(n2cc(C=O)[nH]c2=O)[C@H](O)[C@@H]1O)[C@H](C)[C@H](O)c1cc(O)ccn1 (some centres undefined)

IC50 [14]: 27 nM
SMILES: COC(=O)C1=C[C@@H](O)[C@@H](O)[C@H](O[C@@H](C(N)=O)[C@H]2O[C@@H](n3ccc(=O)[nH]c3=O)[C@H](O)[C@@H]2OC)O1

SMILES: NC[C@H]1O[C@@H](O[C@@H](c2cn(CCCCCCCCCCOc3ccc(C(=O)c4ccccc4)cc3)nn2)[C@H]2O[C@@H](n3ccc(=O)[nH]c3=O)[C@H](O)[C@@H]2O)[C@H](O)[C@@H]1O
MIC [15]: 8 µg/mL (≈ 10.3 µM)

SMILES: CC(C)[C@H](O)[C@H](N)C(=O)NCCCN[C@H](C(=O)OC(C)(C)C)[C@@H](O)[C@H]1O[C@@H](n2ccc(=O)[nH]c2=O)[C@H](O[Si](C)(C)C(C)(C)C)[C@@H]1O[Si](C)(C)C(C)(C)C
MIC [10]: 1 µg/mL
MIC [11]: 1 µg/mL

MIC [16]: 8 µg/mL (≈ 16.8 µM)
MIC [8]: 24 µg/mL (≈ 50.4 µM)
MIC [17]: 32 µg/mL (≈ 67.2 µM)
SMILES: CC1(C)O[C@@H]2[C@H](O1)[C@@H](Cn1cc(COc3ccc(Cl)cc3)nn1)O[C@H]2n1ccc(=O)[nH]c1=O

MIC [1]: 0.19 µM (≈ 0.0668 µg/mL)
MIC [2]: 0.19 µM (≈ 0.0668 µg/mL)
MIC [3]: 0.19 µM (≈ 0.0668 µg/mL)
SMILES: C=CCSC[C@H]1O[C@@H](n2cnc3c([N+](=O)[O-])cccc32)[C@H](O)[C@@H]1O

MIC [18]: 6 µg/mL (≈ 12.6 µM)
SMILES: NC(=O)OC[C@H](O)[C@@H](O)[C@H](N)C(=O)N[C@H](C(=O)O)[C@H]1O[C@@H](n2cc(C=O)[nH]c2=O)[C@H](O)[C@@H]1O
